Test results as given in patent US10543212B2, “Substituted amines for treating cardiac diseases” (Cardurion Pharmaceuticals, LLC, priority 2017, dated 2020).

target: T1, Full-length, GST-tagged, human CaMKIIδ (Homo sapiens, UniProt Q13557); experiment: CaMKIIδ binding assay (TR-FRET with BODIPY-labeled probe ligand); details: CaMKIIδ binding assay, results of Table 2
T1 construct: Full-Length, Glutathione-S-Transferase(GST)-Tagged, Human CaMKIIδ was purchased from Carna Biosciences; purchased Carna Biosciences 02-111
Experimental: In vitro CaMKIIδ inhibitory activity was evaluated by a binding assay.
Full-Length, Glutathione-S-Transferase(GST)-Tagged, Human CaMKIIδ was purchased from Carna Biosciences (product #02-111, Kobe, Japan). Full-length bovine calmodulin was purchased from Wako Pure Chemical Industries (Osaka, Japan). Terbium-labeled anti-GST antibody (Tb-anti-GST Ab) was purchased from Life Technologies (Carlsbad, Calif., USA). Boron-dipyrromethene (BODIPY)-labeled probe ligand was synthesized as described below.
Time-Resolved Fluorescence Resonance Energy Transfer (TR-FRET) Assay
All assays were conducted using 384-well, white, flat-bottomed plates (product #784075, Greiner Bio-One, Frickenhausen, Germany) in kinase assay buffer, which consists of 50 mM HEPES pH 7.6, 10 mM MgCl2, 1 mM EGTA, 0.01% Brig-35, 0.1 mM DTT). The fluorescent probe ligand was added at a final concentration of 300 nM to solutions containing 0.21 nM Tb-anti-GST Ab, 1 mM CaCl2), 10 μg/mL calmodulin, and 0.5 nM GST-tagged CaMKIIδ. After shaded incubation of the protein-probe mixture on ice for 30 min, the premix was dispensed in the assay plate including test inhibitors with 4 fold dilution series of eight concentrations. After 1 hr incubation at room temperature, TR-FRET signals were measured in duplicate using an EnVision microplate reader (Perkin Elmer, Waltham, Mass., USA). The solution in each well was excited with a laser (λ=340 nm) reflected by a dichroic mirror (D400/D505 (Perkin Elmer) through an excitation filter (UV (TRF) 340, (Perkin Elmer)), and fluorescence from Tb and BODIPY were detected through two emission filters (CFP 495 (Perkin Elmer) for Tb, Emission 520 (Perkin Elmer) for BODIPY).
The percentage of inhibition of test compounds was calculated according to equation (1) Inhibition (%)=100×([…]−T)/(μH−μL) (1)
Where T is the value of the wells containing test compounds and μH and μL are the mean values of the 0% and 100% inhibition control wells, respectively. The values of the 0 and 100% controls were the signals obtained in the absence and presence of 3 μM its parent compound, respectively. The half maximal inhibitory concentration (IC50) of test compounds was calculated by fitting the data with the logistic equation using XLfit (IDBS, Guildford, UK). The IC50 was classified according to the following activity ranks.

T1 sequence (Q13557 1-478 isoform Q13557-12): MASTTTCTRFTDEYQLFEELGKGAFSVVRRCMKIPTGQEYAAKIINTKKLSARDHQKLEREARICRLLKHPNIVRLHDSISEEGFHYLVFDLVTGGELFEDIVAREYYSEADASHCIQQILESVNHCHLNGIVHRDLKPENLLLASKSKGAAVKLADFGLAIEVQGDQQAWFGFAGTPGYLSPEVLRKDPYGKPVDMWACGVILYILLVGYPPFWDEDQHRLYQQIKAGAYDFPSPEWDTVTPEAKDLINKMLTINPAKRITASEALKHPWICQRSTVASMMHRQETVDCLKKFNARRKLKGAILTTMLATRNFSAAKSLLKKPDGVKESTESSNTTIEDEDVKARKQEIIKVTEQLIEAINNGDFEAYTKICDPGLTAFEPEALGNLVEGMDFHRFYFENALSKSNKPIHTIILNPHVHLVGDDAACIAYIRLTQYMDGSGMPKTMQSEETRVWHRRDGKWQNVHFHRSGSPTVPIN

C[C@@H](Cn1cnnn1)Oc1cc(-c2cnc(Nc3cn(C4CCN(C5CCN(C)CC5)CC4)nc3C(F)(F)F)nc2)ccc1Cl [Example 559, (S)-5-(3-((1-(1H-tetrazol-1-yl)propan-2-yl)oxy)-4-chlorophenyl)-N-(1-(1'-methyl-[1,4'-bipiperidin]-4-yl)-3-(trifluoromethyl)-1H-pyrazol-4-yl)pyrimidin-2-amine] and C[C@@H](Cn1cnnn1)Oc1cc(-c2cnc(Nc3cn(C4CCN(C5CCOC5)CC4)nc3C(F)(F)F)nc2)ccc1Cl (stereo partly drawn) [Example 552, 5-(3-(((S)-1-(1H-tetrazol-1-yl)propan-2-yl)oxy)-4-chlorophenyl)-N-(1-(1-(tetrahydrofuran-3-yl)piperidin-4-yl)-3-(trifluoromethyl)-1H-pyrazol-4-yl)pyrimidin-2-amine] cannot be ordered by IC50: less than 10 nM for the first, less than 10 nM for the second.

Compared with C[C@@H](Cn1cnnn1)Oc1cc(-c2cnc(Nc3cn(C4CCN(Cc5ccccc5)CC4)nc3C(F)(F)F)nc2)ccc1Cl [Example 548, (S)-5-(3-((1-(1H-tetrazol-1-yl)propan-2-yl)oxy)-4-chlorophenyl)-N-(1-(1-benzylpiperidin-4-yl)-3-(trifluoromethyl)-1H-pyrazol-4-yl)pyrimidin-2-amine], COc1ccc(CN2CCOCC2)cc1Nc1ncc(-c2ccc(Cl)c(O[C@@H](C)Cn3cnnn3)c2)cn1 [Example 448, (S)-5-(3-((1-(1H-tetrazol-1-yl)propan-2-yl)oxy)-4-chlorophenyl)-N-(2-methoxy-5-(morpholinomethyl)phenyl)pyrimidin-2-amine] is higher in IC50: less than 10 nM for the first, 10 to 100 nM for the second. The first is the more potent here.

COc1ccc(C(=O)N2C[C@@H](C)N[C@@H](C)C2)cc1Nc1ncc(-c2ccc(Cl)c(O[C@@H](C)Cn3cnnn3)c2)cn1 [Example 570, (3-((5-(3-(((S)-1-(1H-tetrazol-1-yl)propan-2-yl)oxy)-4-chlorophenyl)pyrimidin-2-yl)amino)-4-methoxyphenyl) (cis-3,5-dimethylpiperazin-1-yl)methanone] and COc1cc(C2CCCNC2)ccc1Nc1ncc(-c2ccc(C#N)c(O[C@@H](C)Cn3cnnn3)c2)cn1 (stereo partly drawn) [Example 472, 2-(((S)-1-(1H-tetrazol-1-yl)propan-2-yl)oxy)-4-(2-((2-methoxy-4-(piperidin-3-yl)phenyl)amino)pyrimidin-5-yl)benzonitrile] cannot be ordered by IC50: less than 10 nM for the first, less than 10 nM for the second.

First: COc1cc2c(cc1Nc1ncc(-c3ccc(Cl)c(O[C@@H](C)Cn4cnnn4)c3)cn1)CCN(C(=O)CN1CCOCC1)C2 [Example 470, (S)-1-(6-((5-(3-((1-(1H-tetrazol-1-yl)propan-2-yl)oxy)-4-chlorophenyl)pyrimidin-2-yl)amino)-7-methoxy-3,4-dihydroisoquinolin-2(1H)-yl)-2-morpholinoethan-1-one]
Second: Cc1cnc(N2CCC(N3CCOCC3)CC2)cc1Nc1ncc(-c2ccc(Cl)c(O[C@@H](C)Cn3cnnn3)c2)cn1 [Example 478, (S)-5-(3-((1-(1H-tetrazol-1-yl)propan-2-yl)oxy)-4-chlorophenyl)-N-(5-methyl-2-(4-morpholinopiperidin-1-yl)pyridin-4-yl)pyrimidin-2-amine]
The IC50 of the first is lower: less than 10 nM for the first, 10 to 100 nM for the second. The first is the more potent here.

C[C@@H](Cn1cnnn1)Oc1cc(-c2cnc(Nc3cc(N4CCC(N5CCOCC5)CC4)cnc3OCC(F)(F)F)nc2)ccc1Cl [Example 581, (S)-5-(3-((1-(1H-tetrazol-1-yl)propan-2-yl)oxy)-4-chlorophenyl)-N-(5-(4-morpholinopiperidin-1-yl)-2-(2,2,2-trifluoroethoxy)pyridin-3-yl)pyrimidin-2-amine] and C[C@@H](Cn1cnnn1)Oc1cc(-c2cnc(Nc3cc(N4CCN(C5CCOCC5)CC4)ncc3OC(F)(F)F)nc2)ccc1C#N [Example 542, (S)-2-((1-(1H-tetrazol-1-yl)propan-2-yl)oxy)-4-(2-((2-(4-(tetrahydro-2H-pyran-4-yl)piperazin-1-yl)-5-(trifluoromethoxy)pyridin-4-yl)amino)pyrimidin-5-yl)benzonitrile] cannot be ordered by IC50: less than 10 nM for the first, less than 10 nM for the second.

same assay, conditions: CaMKIIδ binding assay; activity class per Table 2

C[C@@H](Cn1cnnn1)Oc1cc(-c2cnc(Nc3cn(CC4(O)CCC(=O)CC4)nc3OCC(F)(F)F)nc2)ccc1Cl [Example 903, (S)-4-((4-((5-(3-((1-(1H-tetrazol-1-yl)propan-2-yl)oxy)-4-chlorophenyl)pyrimidin-2-yl)amino)-3-(2,2,2-trifluoroethoxy)-1H-pyrazol-1-yl)methyl)-4-hydroxycyclohexan-1-one] and COCCN1CC2(CC(n3cc(Nc4ncc(-c5ccc(Cl)c(O[C@@H](C)Cn6cnnn6)c5)cn4)c(OCC(F)(F)F)n3)C2)C1 [Example 979, (S)-5-(3-((1-(1H-tetrazol-1-yl)propan-2-yl)oxy)-4-chlorophenyl)-N-(1-(2-(2-methoxyethyl)-2-azaspiro[3.3]heptan-6-yl)-3-(2,2,2-trifluoroethoxy)-1H-pyrazol-4-yl)pyrimidin-2-amine] cannot be ordered by IC50: less than 10 nM for the first, less than 10 nM for the second.

same assay, conditions: Table 2; CaMKIIδ binding assay, activity given as class A/B/C

First: C[C@@H](Cn1cnnn1)Oc1cc(-c2cnc(Nc3cn(CCN)nc3C(F)(F)F)nc2)ccc1Cl [Example 877, (S)-5-(3-((1-(1H-tetrazol-1-yl)propan-2-yl)oxy)-4-chlorophenyl)-N-(1-(2-aminoethyl)-3-(trifluoromethyl)-1H-pyrazol-4-yl)pyrimidin-2-amine]
Second: C[C@@H](Cn1cnnn1)Oc1cc(-c2cnc(Nc3cn(C4CCCC4)nc3C(F)(F)F)nc2)ccc1Cl [Example 739, (S)-5-(3-((1-(1H-tetrazol-1-yl)propan-2-yl)oxy)-4-chlorophenyl)-N-(1-cyclopentyl-3-(trifluoromethyl)-1H-pyrazol-4-yl)pyrimidin-2-amine]
The IC50 of the first is lower: less than 10 nM for the first, 10 to 100 nM for the second.

C[C@@H](Cn1cccn1)Oc1cc(-c2cnc(Nc3cn([C@H]4CC[C@H](N5CCOCC5)CC4)nc3OCC(F)(F)F)nc2)ccc1C#N [Example 798, 2-(((S)-1-(1H-pyrazol-1-yl)propan-2-yl)oxy)-4-(2-((1-(trans-4-morpholinocyclohexyl)-3-(2,2,2-trifluoroethoxy)-1H-pyrazol-4-yl)amino)pyrimidin-5-yl)benzonitrile] and C[C@@H](Cn1cnnn1)Oc1cc(-c2cnc(Nc3cn(C4CC4)nc3OCC(F)(F)F)nc2)ccc1Cl [Example 774, (S)-5-(3-((1-(1H-tetrazol-1-yl)propan-2-yl)oxy)-4-chlorophenyl)-N-(1-cyclopropyl-3-(2,2,2-trifluoroethoxy)-1H-pyrazol-4-yl)pyrimidin-2-amine] cannot be ordered by IC50: less than 10 nM for the first, less than 10 nM for the second.

First: C[C@@H](Cn1cnnn1)Oc1cc(-c2cnc(Nc3cn(CC(F)(F)F)nc3OCC(F)(F)F)nc2)ccc1Cl [Example 756, (S)-5-(3-((1-(1H-tetrazol-1-yl)propan-2-yl)oxy)-4-chlorophenyl)-N-(3-(2,2,2-trifluoroethoxy)-1-(2,2,2-trifluoroethyl)-1H-pyrazol-4-yl)pyrimidin-2-amine]
Second: C[C@@H](Cn1cnnn1)Oc1cc(-c2cnc(Nc3cn(CC4(O)CCC4)nc3OCC(F)(F)F)nc2)ccc1Cl [Example 853, (S)-1-((4-((5-(3-((1-(1H-tetrazol-1-yl)propan-2-yl)oxy)-4-chlorophenyl)pyrimidin-2-yl)amino)-3-(2,2,2-trifluoroethoxy)-1H-pyrazol-1-yl)methyl)cyclobutan-1-ol]
The IC50 of the first is higher: 10 to 100 nM for the first, less than 10 nM for the second.

same assay, conditions: Table 2; activity class for CaMKIIδ

Compared with COc1nc(N2CCN(C(=O)C(F)(F)F)CC2)ccc1Nc1ncc(-c2ccc(Cl)c(O[C@@H](C)Cn3cnnn3)c2)cn1 [Example 638, (S)-1-(4-(5-((5-(3-((1-(1H-tetrazol-1-yl)propan-2-yl)oxy)-4-chlorophenyl)pyrimidin-2-yl)amino)-6-methoxypyridin-2-yl)piperazin-1-yl)-2,2,2-trifluoroethan-1-one], COc1ccc(C(=O)N2CCN(CC3CC3)CC2)cc1Nc1ncc(-c2ccc(Cl)c(O[C@@H](C)Cn3cnnn3)c2)cn1 [Example 681, (S)-(3-((5-(3-((1-(1H-tetrazol-1-yl)propan-2-yl)oxy)-4-chlorophenyl)pyrimidin-2-yl)amino)-4-methoxyphenyl) (4-(cyclopropylmethyl)piperazin-1-yl)methanone] is lower in IC50: no less than 100 nM for the first, less than 10 nM for the second. The second is the more potent here.

COCCn1nc(C)cc1Nc1ncc(-c2ccc(Cl)c(O[C@@H](C)Cn3cnnn3)c2)cn1 [Example 655, (S)-5-(3-((1-(1H-tetrazol-1-yl)propan-2-yl)oxy)-4-chlorophenyl)-N-(1-(2-methoxyethyl)-3-methyl-1H-pyrazol-5-yl)pyrimidin-2-amine] and CCn1cc(Nc2ncc(-c3ccc(Cl)c(O[C@@H](C)Cn4cnnn4)c3)cn2)c(C(F)(F)F)n1 [Example 674, (S)-5-(3-((1-(1H-tetrazol-1-yl)propan-2-yl)oxy)-4-chlorophenyl)-N-(1-ethyl-3-(trifluoromethyl)-1H-pyrazol-4-yl)pyrimidin-2-amine] cannot be ordered by IC50: no less than 100 nM for the first, 10 to 100 nM for the second.
